Earlier results on 5 compounds are cited in patent publication US20210213129A1, “NON-PSYCHOACTIVE CANNABINOIDS AS ADJUVANTS TO ENHANCE MUCOSAL IMMUNITY” (Immugen Pharma LLC, priority 2014, published 2021).

The test system of one data set is B-cells. The following applies: cultured B-cells, co-stimulation with IL-4 and anti-CD40.
The next data set concerns macrophages. Particulars: macrophages activated by LPS or TMEV.
The next data set deals with B cells. The following applies: selective CB1 antagonist added.
Data set [1] relates to T cells. Particulars: mixed lymphocyte reaction and highly purified T cells.
Data set [2] deals with T cells. The following applies: T cells stimulated by allogeneic dendritic cells or anti-CD3/anti-CD28.
Another data set deals with GATA3; IL12Rβ2. The following applies: mice, after Legionella challenge.

Turning to `CCCCCCC(C)(C)c1ccc([C@@H]2C[C@H](O)CC[C@H]2CCCO)c(O)c1` [CP55940], the “increased IgE expression” value with B-cells is listed as 40-60%. In the data set on virgin and GC B cells (in the absence of CD40 MoAbs), the “proliferation of B-cell subsets” value is “incapable of inducing any proliferation”.

For `CCCC(C)(C)c1ccc2c(c1)OC(C)(C)[C@@H]1CC=C(C)C[C@@H]21` [JWH-133], in the data set on macrophages, the IL-12p40 result is listed as “downregulated”.

On to `Cc1c(C(=O)NN2CCCCC2)nn(-c2ccc(Cl)cc2Cl)c1-c1ccc(Cl)cc1` [SR141716A], for which, in the data set with B cells, the “block of CB2 receptor mRNA expression and of the B-cell enhancing effects of the drug” value is reported as “did not block”.

In the case of `Cc1ccc(Cn2nc(C(=O)NC3C4(C)CCC(C4)C3(C)C)cc2-c2ccc(Cl)c(C)c2)cc1` (centres unmarked) [SR 144528A], in the data set with virgin and GC B cells (selective CB2 receptor antagonist against agonist CP55,940), the “proliferative response of virgin and GC B cells by CP55,940” value is “inhibited”.

For `CCCCCc1cc(O)c2c(c1)OC(C)(C)[C@@H]1CCC(C)=C[C@@H]21` [THC, tetrahydrocannabinol], in the data set with T cells [1] (CB1 mediated), the “Th1 cytokines Il-2, IFN-γ and Il-12” value is on record as “downregulation”. Also, the “IL-4 and Il-5” value with T cells [1] (CB2 mediated) is on record as “upregulation”. The “IL-4, % of diluent control levels” value with T cells [2] (of diluent control levels) is on record as 105±11%. Further, the “decrease of INF-γ” value in the data set with T cells [2] (p<0.05) is listed as 51±18%. For the same compound, in the data set on GATA3; IL12Rβ2 (CB2 mechanism), the “TH2 biasing factor GATA3” value is “upregulation”. The “IL12Rβ2, a marker of TH1 polarization” value with GATA3; IL12Rβ2 (mediated by CB1 receptor) is reported as “downregulation”.
